Blank lines part the entries; values can stand above or below the compound they belong to. Calls of active or inactive are those of the source.
Legend:
[1] = NIH3T3 cell viability loss – ATP luminescence, mouse fibroblasts, counter-screen, dose response (AID 2010); assay type: functional, cell-based;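 note: cells exposed to compound for about 90 hours before reading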
[2] = Trypanosoma cruzi growth suppression in host cells – NIH3T3 host cells, beta-gal luminescence, confirmation (AID 2044); assay type: functional, cell-based;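 note: intracellular parasites grown in NIH/3T3 mouse fibroblasts as host cells; luminescent beta-galactosidase reporter signal from transgenic T. cruzi replicating inside host cells; inhibitors lower the luminescence signal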
[3] = molecular target: Cytochrome P450 2C19 (Homo sapiens, UniProt P33261); experiment: Cytochrome panel assay with activity outcomes. Panel member name: p450-cyp2c19 Compounds with AC50 equal or less than 10 uM are considered active; assay type: functional
[4] = molecular target: Cytochrome P450 2C9 (Homo sapiens, UniProt P11712)
[5] = molecular target: T1, Cytochrome P450 1A2 (Homo sapiens, UniProt P05177);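 note: PubChem cytochrome P450 panel assay, CYP1A2 panel member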
T1 sequence (P05177 whole entry): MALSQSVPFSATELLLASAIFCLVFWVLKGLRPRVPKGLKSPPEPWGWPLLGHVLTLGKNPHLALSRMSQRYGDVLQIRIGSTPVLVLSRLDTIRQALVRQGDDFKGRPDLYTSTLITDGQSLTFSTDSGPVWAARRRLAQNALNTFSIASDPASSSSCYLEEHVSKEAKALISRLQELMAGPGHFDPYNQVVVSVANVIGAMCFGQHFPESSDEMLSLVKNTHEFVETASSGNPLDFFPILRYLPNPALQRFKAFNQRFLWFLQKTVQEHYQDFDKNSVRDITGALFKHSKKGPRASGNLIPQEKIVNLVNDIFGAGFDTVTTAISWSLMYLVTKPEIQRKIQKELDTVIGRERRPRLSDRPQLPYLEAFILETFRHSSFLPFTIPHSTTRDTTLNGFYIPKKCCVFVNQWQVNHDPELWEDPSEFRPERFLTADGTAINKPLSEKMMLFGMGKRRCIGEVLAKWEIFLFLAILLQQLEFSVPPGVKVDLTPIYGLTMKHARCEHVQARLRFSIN

[6] = molecular target: Cytochrome P450 2D6 (Homo sapiens, UniProt P10635);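 note: CYP2D6 member of a cytochrome P450 panel assay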
[7] = system: Streptococcus; experiment: GAS UMAA2166 growth inhibition – luminescence, BacTiterGlo, counter-screen for streptokinase expression inhibitor project, dose response (AID 1915); assay type: functional, organism-based;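 note: potency for reduction of bacterial viability or growth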
[8] = system: Streptococcus sp. 'group A'; experiment: Streptococcus pyogenes SK(-)GAS viability under kanamycin – luminescence, BacTiterGlo, confirmation, counter-screen for streptokinase expression inhibitor project, dose response (AID 1900); assay type: functional, organism-based

Chain of Cytochrome P450 2C19 (P33261 whole entry): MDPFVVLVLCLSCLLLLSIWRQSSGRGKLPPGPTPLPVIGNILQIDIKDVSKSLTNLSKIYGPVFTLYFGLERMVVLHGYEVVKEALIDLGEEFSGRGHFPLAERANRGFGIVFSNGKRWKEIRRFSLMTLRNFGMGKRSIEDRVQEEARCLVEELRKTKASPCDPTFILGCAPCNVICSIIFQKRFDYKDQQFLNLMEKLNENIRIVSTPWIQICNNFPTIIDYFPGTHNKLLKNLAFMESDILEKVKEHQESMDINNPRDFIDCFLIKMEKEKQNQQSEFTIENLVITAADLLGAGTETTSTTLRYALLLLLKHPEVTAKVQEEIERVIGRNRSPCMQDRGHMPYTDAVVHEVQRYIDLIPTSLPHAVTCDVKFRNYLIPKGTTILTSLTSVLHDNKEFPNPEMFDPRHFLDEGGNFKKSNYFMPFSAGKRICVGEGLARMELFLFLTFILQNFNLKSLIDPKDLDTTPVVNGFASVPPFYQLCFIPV
Chain of Cytochrome P450 2C9 (P11712 whole entry): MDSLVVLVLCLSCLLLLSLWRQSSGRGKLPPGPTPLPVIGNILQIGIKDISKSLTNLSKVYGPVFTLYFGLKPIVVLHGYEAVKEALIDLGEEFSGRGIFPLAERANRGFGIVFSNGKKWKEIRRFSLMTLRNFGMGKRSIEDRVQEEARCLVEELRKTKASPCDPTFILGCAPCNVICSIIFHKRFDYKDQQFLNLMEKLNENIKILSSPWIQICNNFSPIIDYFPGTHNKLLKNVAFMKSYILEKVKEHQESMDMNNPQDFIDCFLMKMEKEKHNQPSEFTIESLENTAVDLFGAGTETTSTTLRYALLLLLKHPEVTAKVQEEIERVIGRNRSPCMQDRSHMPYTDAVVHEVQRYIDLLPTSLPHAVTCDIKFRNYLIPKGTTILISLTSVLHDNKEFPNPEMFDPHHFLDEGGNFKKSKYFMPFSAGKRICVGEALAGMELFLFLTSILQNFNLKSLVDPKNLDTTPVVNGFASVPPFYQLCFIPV
Chain of Cytochrome P450 2D6 (P10635 whole entry): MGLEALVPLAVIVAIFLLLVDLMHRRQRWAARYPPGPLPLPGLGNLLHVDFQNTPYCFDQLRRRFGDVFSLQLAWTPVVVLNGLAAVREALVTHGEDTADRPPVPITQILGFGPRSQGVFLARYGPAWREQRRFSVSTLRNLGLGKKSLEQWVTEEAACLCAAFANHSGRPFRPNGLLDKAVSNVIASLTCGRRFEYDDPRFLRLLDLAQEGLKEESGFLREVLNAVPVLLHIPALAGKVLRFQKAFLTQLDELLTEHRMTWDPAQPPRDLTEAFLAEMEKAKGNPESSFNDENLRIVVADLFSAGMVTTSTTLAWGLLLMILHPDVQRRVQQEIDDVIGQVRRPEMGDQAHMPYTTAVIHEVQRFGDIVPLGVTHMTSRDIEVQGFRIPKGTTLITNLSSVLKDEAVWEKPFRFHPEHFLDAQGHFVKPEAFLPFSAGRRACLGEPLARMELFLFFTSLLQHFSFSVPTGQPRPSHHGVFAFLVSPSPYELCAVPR

SMILES: O=C(CN1CCC(c2nc3ccccc3s2)CC1)NCc1ccccc1
EC50 [1]: > 60 µM (not active)
EC50 [2]: 0.237 µM (active)

SMILES: CCCCNC(=O)C1CC(=O)N(CCC(C)C)C1 (configuration not stated)
AC50 ([3]; read-out: AC50): 25.1 µM (inconclusive)

SMILES: COc1ccc(OC)c2sc(N3CCN(C(=O)c4ccc([N+](=O)[O-])s4)CC3)nc12
EC50 [1]: > 60 µM (not active)
EC50 [2]: 1.8 µM (active)

SMILES: CN1CCN(c2ncc3ncc(=O)n(CCC#N)c3n2)CC1
AC50 [5]: 31.6 µM (inconclusive)
AC50 [3]: inconclusive

SMILES: Cc1nn(C(C)C(=O)NC2C(=O)N3C(C(=O)O)=C(CSc4nnnn4C)CSC23)cc1Cl (configuration not stated)
EC50 [7]: 0.337 µM (active)
EC50 [8]: 0.112 µM (active)

SMILES: CC(C)c1cc(C(C)C)c(S(=O)(=O)N2c3ccccc3[C@@]3(Br)C[C@H]4C(=O)N[C@@H](Cc5ccccc5)C(=O)N4[C@@H]23)c(C(C)C)c1
EC50 [1]: > 60 µM (not active)
EC50 [2]: 2.08 µM (active)

SMILES: CCOC(=O)c1cc(C#N)c(N2CCN(C)CC2)nc1-c1ccccc1
EC50 [1]: > 60 µM (not active)
EC50 [2]: 1.3 µM (active)

SMILES: Cc1nc2cnc(N3CCN(C)CC3)nc2n(CCC#N)c1=O
AC50 [5]: 12.6 µM (inconclusive)

SMILES: COC(=O)CNC(=O)CN1C(=O)N(c2ccc(Cl)cc2)C(N(O)C(=O)Nc2ccc(Cl)cc2)C1(C)C (configuration not stated)
AC50 [6]: 15.8 µM (inconclusive)
AC50 [5]: 22.4 µM (inconclusive)

SMILES: Cc1oc(-c2ccccc2Cl)nc1CN1CCCCC1c1cccnc1 (configuration not stated)
EC50 [1]: > 60 µM (inconclusive)
EC50 [2]: 1.2 µM (active)

SMILES: NC(=O)[C@@H]1CCCN1Cc1ccc2c(c1)OCO2
AC50 [6]: 3.98 µM (inconclusive)
AC50 [5]: 3.16 µM (inconclusive)
AC50 ([3]; read-out: AC50): 5.01 µM (inconclusive)

SMILES: O=C(c1cnccn1)N1CCC2(CCN(Cc3ccncc3)CC2)CC1
AC50 [5]: 25.1 µM (inconclusive)

SMILES: O=C(N1CCOCC1)N1CCN(c2ccccc2)CC1
AC50 [4]: 4.47 µM (inconclusive)

SMILES: COc1cc(C(=O)Nc2nc(-c3ccc(F)cc3)cs2)ccc1OCC(=O)N1CCOCC1
EC50 [1]: > 60 µM (not active)
EC50 [2]: 1.36 µM (active)

SMILES: CCOC(=O)c1cccc(N2C(N)=NC(N)=NC2(C)C)c1
EC50 [7]: 0.63 µM (active)
EC50 [8]: 0.127 µM (active)

Now from value to compound:

AC50 ([3]; read-out: AC50): 2.51 µM (inconclusive)
SMILES: CCOc1cc(NC(=O)CC(C)C)c(OCC)cc1N=C(S)Nc1cccc(C)c1

AC50 [4]: 1 µM (inconclusive)
AC50 ([3]; read-out: AC50): 1.58 µM (inconclusive)
SMILES: Cc1ccc(C(=O)Nc2cccc(-c3cnc4ccccc4n3)c2)cc1

AC50 [5]: 20 µM (inconclusive)
SMILES: CC(C)C(=O)NCCn1ccc2ccccc21

AC50 [4]: 0.794 µM (inconclusive)
SMILES: c1cncc(CNc2ncncc2-c2ccc3c(c2)OCO3)c1

AC50 ([3]; read-out: AC50): 35.5 µM (inconclusive)
SMILES: Cc1cc(C)n(-c2nc(NC(C)C)nc(NC(C)C)n2)n1

AC50 [6]: 8.91 µM (inconclusive)
SMILES: Cc1cccc(-c2nsc(SCC(=O)Nc3nccs3)n2)c1

AC50 [4]: 0.631 µM (inconclusive)
AC50 ([3]; read-out: AC50): 3.16 µM (inconclusive)
SMILES: Cc1cccc(CNc2nc(-c3c(C)noc3C)nc3ccccc23)c1

AC50 [5]: 22.4 µM (inconclusive)
AC50 [4]: 10 µM (inconclusive)
AC50 ([3]; read-out: AC50): 17.8 µM (inconclusive)
SMILES: CC1(O)CC(=O)N(c2ccccc2)O1 (configuration not stated)

AC50 [6]: 0.0355 µM (inconclusive)
AC50 [4]: 1.78 µM (inconclusive)
AC50 ([3]; read-out: AC50): 7.94 µM (inconclusive)
SMILES: Cc1ccc(-c2nnc(-c3ccccc3S(=O)(=O)Cc3ccc(Cl)cc3)o2)cc1

AC50 ([3]; read-out: AC50): 39.8 µM (inconclusive)
SMILES: O=c1[nH]n(-c2cccc(Cl)c2)c2ncccc12

AC50 [6]: 22.4 µM (inconclusive)
AC50 [4]: 8.91 µM (inconclusive)
AC50 ([3]; read-out: AC50): 11.2 µM (inconclusive)
SMILES: CCn1ccc(C(=O)Oc2ccc(Cl)cc2)n1

AC50 [5]: 14.1 µM (inconclusive)
AC50 [4]: 8.91 µM (inconclusive)
AC50 ([3]; read-out: AC50): 20 µM (inconclusive)
SMILES: O=C(Cn1cnc2c(oc3ccccc32)c1=O)NCc1ccco1

AC50 [5]: 15.8 µM (inconclusive)
SMILES: Cc1cnc(CNc2ncnc3ccc(-c4ccc(C(=O)N(C)C)cc4)cc23)cn1

AC50 ([3]; read-out: AC50): 0.0224 µM (inconclusive)
SMILES: CN(C)c1ccc(/C=C2/C(=O)N(c3ccc([N+](=O)[O-])cc3)N=C2N2CCOCC2)cc1

AC50 [6]: 12.6 µM (inconclusive)
SMILES: Cc1nc(NC(=O)c2ccccc2)sc1-c1csc(Nc2ccc(Cl)cc2Cl)n1
